What is called IC50 is the point on the concentration scale where inhibition reaches its midpoint.

From PMC6158189, “A pharmacological probe identifies cystathionine β-synthase as a new negative regulator for ferroptosis” (Cell Death & Disease, 2018) come the findings set out here.

Assay [1] deals with T1, hCBS T146A (Homo sapiens, UniProt P35520, T146A).
T1 construct: hCBS-413 (a C-terminal truncated hCBS 1–413); GST (N); made in house; host or cells: E. coli BL21
The experiment in a line: purified hCBS mutant enzyme assay. The class given is biochemical. How it is done:
(§1) The IC50 values of CH004 for hCBS-413, hCBS-413 mutants, hCBS-FL, hCSE or hDDC were determined according to the standard assay conditions otherwise indicated.
(§2) Table S2. Inhibitory effects of CH004 on hCBS WT and mutants.

In assay [2] the target is T2, hCBS S147A (Homo sapiens, UniProt P35520, S147A).
T2 construct: hCBS-413 (a C-terminal truncated hCBS 1–413); GST (N); made in house; host or cells: E. coli BL21
T2 sequence (P35520 1-413 S147A): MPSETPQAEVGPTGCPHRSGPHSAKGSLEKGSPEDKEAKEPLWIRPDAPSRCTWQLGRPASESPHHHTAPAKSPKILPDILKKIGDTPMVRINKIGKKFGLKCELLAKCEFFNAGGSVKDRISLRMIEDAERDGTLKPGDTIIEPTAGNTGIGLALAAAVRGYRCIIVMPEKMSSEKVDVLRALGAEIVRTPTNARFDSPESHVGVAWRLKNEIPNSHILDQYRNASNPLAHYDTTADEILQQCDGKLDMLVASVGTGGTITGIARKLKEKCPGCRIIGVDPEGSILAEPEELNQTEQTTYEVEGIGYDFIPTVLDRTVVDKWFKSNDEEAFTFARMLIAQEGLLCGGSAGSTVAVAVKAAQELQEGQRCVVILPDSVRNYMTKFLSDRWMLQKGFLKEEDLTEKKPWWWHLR
The experiment in a line: purified hCBS mutant enzyme assay. Format: biochemical. How it is done: as §1, §2

In assay [3] the target is T3, hCBS Y223F (Homo sapiens, UniProt P35520, Y223F).
T3 construct: hCBS-413 (a C-terminal truncated hCBS 1–413); GST (N); made in house; host or cells: E. coli BL21
T3 sequence (P35520 1-413 Y223F): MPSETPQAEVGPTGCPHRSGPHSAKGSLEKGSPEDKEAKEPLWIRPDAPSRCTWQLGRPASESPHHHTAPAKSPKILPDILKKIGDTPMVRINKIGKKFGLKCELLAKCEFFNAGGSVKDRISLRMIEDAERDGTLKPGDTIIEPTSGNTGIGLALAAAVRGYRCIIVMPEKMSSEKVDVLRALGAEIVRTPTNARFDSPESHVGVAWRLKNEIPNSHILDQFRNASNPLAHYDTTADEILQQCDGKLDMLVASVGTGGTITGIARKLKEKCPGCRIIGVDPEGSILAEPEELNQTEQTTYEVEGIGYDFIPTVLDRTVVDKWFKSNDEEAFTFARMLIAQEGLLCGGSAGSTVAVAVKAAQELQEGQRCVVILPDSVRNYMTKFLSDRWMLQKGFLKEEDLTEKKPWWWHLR
The experiment in a line: purified hCBS mutant enzyme assay. Format: biochemical. How it is done: as §1, §2

Assay [4] has as its target hCSE (Homo sapiens, UniProt P32929). The experiment in a line: H2S in HEK293T cells transiently expressing hCSE (AzMC probe). As to conditions: 10 μM, 8 h. Format: cell-based. How it is done: HEK293T cells were transiently transfected with empty vector (EV, i and ii), hCBS-FL (iii and iv) or hCSE (v and vi) plasmids, followed by incubation with DMSO (i–iii and v) or 10 μM CH004 (iv and vi) for 8 h before staining with 50 μM AzMC, a H2S-specific probe (“Materials and Methods” section). For larger fluorescent and bright-field images, please see Supplementary Figure 4. The expression levels of hCBS or hCSE in HEK293T cells after transient transfections were determined by western blotting using an anti-CBS antibody (3E1, 1:2000; Abnova) or anti-CSE antibody (1:500, GeneTex). The densities of protein bands for hCBS or hCSE in the blots were quantified with the ImageJ software (National Institutes of Health, Bethesda, MD, USA) and expressed as ratios of respective control (EV group). […] The fluorescent images of the H2S (blue) were accordingly quantified (“Materials and Methods” section) with ImageJ. […] A representative fluorescence image from three independent experiments is shown. […]
H2S levels in living cells were detected using a H2S-specific fluorescent probe according to a protocol described previously[31],[55]. […] After incubation with 50 μM AzMC at 37 °C for 30 min, the cells were washed 4 times with PBS, and the fluorescent images were recorded with excitation by 405 nm laser by using a A1Si (Nikon) confocal microscope. […]

Where [5] appears, read: 150 nM CBS, 4 mM Hcys, 4 mM Cys, Tris-HCl pH 8.6.

T1 sequence (P35520 1-413 T146A): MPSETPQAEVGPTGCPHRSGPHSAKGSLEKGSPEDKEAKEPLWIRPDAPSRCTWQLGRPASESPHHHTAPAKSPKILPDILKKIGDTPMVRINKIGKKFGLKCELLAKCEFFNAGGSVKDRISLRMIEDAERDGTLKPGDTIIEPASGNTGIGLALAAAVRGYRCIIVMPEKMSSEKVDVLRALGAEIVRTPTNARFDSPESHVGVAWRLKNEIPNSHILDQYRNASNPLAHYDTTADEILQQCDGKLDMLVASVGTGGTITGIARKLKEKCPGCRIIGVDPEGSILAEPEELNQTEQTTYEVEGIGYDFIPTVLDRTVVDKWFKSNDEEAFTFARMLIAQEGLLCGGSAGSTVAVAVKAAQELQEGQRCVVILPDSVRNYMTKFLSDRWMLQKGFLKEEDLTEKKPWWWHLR
Chain of hCSE (P32929 whole entry): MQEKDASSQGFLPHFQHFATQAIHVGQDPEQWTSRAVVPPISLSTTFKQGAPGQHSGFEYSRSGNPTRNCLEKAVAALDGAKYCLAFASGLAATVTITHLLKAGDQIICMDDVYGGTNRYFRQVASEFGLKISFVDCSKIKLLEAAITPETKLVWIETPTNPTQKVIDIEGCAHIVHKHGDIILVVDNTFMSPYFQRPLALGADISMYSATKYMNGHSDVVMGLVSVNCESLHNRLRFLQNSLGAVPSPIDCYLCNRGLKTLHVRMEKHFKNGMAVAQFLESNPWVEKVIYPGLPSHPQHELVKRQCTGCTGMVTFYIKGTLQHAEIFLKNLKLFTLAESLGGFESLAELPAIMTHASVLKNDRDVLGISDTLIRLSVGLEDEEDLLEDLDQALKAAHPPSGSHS

Regarding `Cn1nc(Cc2ccccc2)nc2c(=O)n(C)c(=O)nc1-2` [CH004, 3-benzyl-1,6-dimethylpyrimido[5,4-e][1,2,4]triazine-5,7(1H,6H)-dione], in assay [1], the “IC50 fold to WT, T146A” value is recorded as 4.2. Moreover, the IC50 in assay [1] (2 µM CBS, 4 mM Hcys, 4 mM Cys, Tris-HCl pH 8.6) was found to be 5 ± 1.5 µM; in assay [2] (setting [5]), 5.9 ± 0.8 µM; in assay [3] (setting [5]) it was 4.2 ± 1 µM. Moreover, the “IC50 fold to WT, S147A” value in assay [2] was 4.9. In assay [3], the “IC50 fold to WT, Y223F” value is recorded as 3.5. In addition, the “effect on production of H2S” value in assay [4] is on record as “did not interfere”.
